Reference: ChEMBL document CHEMBL1201862, “PubChem BioAssay data set” (2004)
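Cells were grown in 96-well plates and exposed to each compound for 48 hours at five concentrations; endpoints were interpolated linearly between bracketing concentrations, or set to the highest concentration if not reached. Abbreviation: GI50, concentration required for 50% inhibition of growth.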 Calls of active or inactive are those of the source. Rule as the data show it: active = GI50 up to about 1.1 µM and inactive = higher.

Columns and labels:
Test in all cases: NCI anticancer screen, dose series, 48 h
PC-3 = tested on: PC-3
T47D = tested on: T47D
A498 = tested on: A498
SN12C = tested on: SN12C
XF498 = tested on: XF498

Row | Structure (SMILES) | GI50 (PC-3) | GI50 (T47D) | GI50 (A498) | GI50 (SN12C) | GI50 (XF498)
1 | Nc1ccc(OCC(O)N2C(=O)c3ccccc3C2=O)cc1 (stereo not given) | > 100 µM (inactive) | > 100 µM (inactive) | – | – | –
2 | CCCCC#CS(=O)(=O)C(F)(F)F | – | – | 44.9 µM (inactive) | > 100 µM (inactive) | 56.9 µM (inactive)
